The text below walks through data of patent US12697328B2, “Methods for treating metastasis with cathepsin C inhibitors” (Shanghai Institute of Nutrition and Health, Chinese Academy …, priority 2020, dated 2026).

One test deals with IL-1β. The test is described as follows: IL-1β secretion of neutrophils pre-treated with CM of SCP28 cancer cells (ELISA). Type of test: cell-based. The note with it: human neutrophils pre-treated with CM of SCP28 with CTSC overexpressed; FIG. 7H. Here is the method: ELISA kits were used to assay the levels of human IL-1β (88-7621-88, ThermoFisher), mouse IL-1β (432604, Biolegend), mouse IL6 (88-7064-88, ThermoFisher), mouse CCL3 (88-56013-88, ThermoFisher) in cell culture supernatants or sera according to the manufacturer's instruction. Briefly, 96-well MaxiSorp™ ELISA Plates (44-2404, ThermoFisher) was coated with capture antibody overnight at 4° C. in coating buffer (15 mM of Na2CO3, 35 mM of NaHCO3, at pH 9.6). After three washes in PBS, the wells were blocked with 5% BSA in PBS for 45 min at room temperature. Then, 100 μl of cell culture supernatants or sera and standard samples were added into the wells and incubated for 2 h at room temperature, and the plates were washed three times with washing buffer (1% BSA, 0.05% Tween-20 in PBS). Next, biotin-conjugated detection antibody in 2.5% BSA was added into the wells and incubated for 2 h at room temperature. After three washes with washing buffer, HRP-streptavidin was incubated for 45 min at room temperature. Then, signals were detected using TMB solution and read at 450 nm.

Test [1] has as its system liver-metastatic breast cancer cell SCP16. The test is described as follows: Tumor sphere formation of liver-metastatic breast cancer cells in neutrophil medium. Type of test: cell-based. Particulars: neutrophils cultured with cancer cell CM with or without brensocatib, FIG. 11H. On the procedure: The neutrophils are cultured with conditioned medium from the cancer cells with or without brensocatib treatment to activate NETosis, and then the neutrophil medium was used in tumor sphere formation of bone and liver-metastatic breast cancer cells to analyze the effect of neutrophil medium to facilitate tumor cell growth. The data are shown in FIG. 11E for bone-metastatic breast cancer cell SCP2 and FIG. 11H for liver-metastatic breast cancer cell SCP16.

A further test concerns colon cancer cells SW480. Nature of the test: NET-promoted tumor sphere formation, colon cancer. Type of test: cell-based. The note with it: neutrophil medium, CM with or without brensocatib, FIG. 11K. Here is the method: (§1) To test the therapeutic effects of brensocatib in different cancer types in vitro, the ability of brensocatib to inhibit NET-promoted tumor sphere formation is investigated. The neutrophils are cultured with conditioned medium from tumor cells of colon cancer, liver cancer, lung cancer, gastric cancer and pancreatic cancer with or without brensocatib treatment to activate NETosis, and then the neutrophil medium was used in tumor sphere formation of these cancer cells to analyze the effect of neutrophil medium to facilitate tumor cell growth. The amount of tumorsphere in each sample is then determined by imaging.

In a further test the test system is 4T1 cells. Nature of the test: Brensocatib treatment of mice after fat pad injection of 4T1 cells (lung metastasis of breast cancer). Type of test: in vivo, BALB/c mice. The note with it: brensocatib 5 mg/kg orally twice daily. On the procedure: Female BALB/c and athymic mice aged 6-10 weeks were used in all animal experiments. Orthotropic and intravenous injection were performed as previously described (Zhuang et al., “Differential effects on lung and bone metastasis of breast cancer by Wnt signalling inhibitor DKK1,” Nat. Cell Biol. 19:1274-1285 (2017)). For EdU labeling assays, nude mice were intravenously injected with 2×10^5 cancer cells, followed by intraperitoneal (i.p.) injection of 100 ng/mouse EdU (ThermoFisher, C10640) 24 h before lung harvest. For neutrophil depletion assays, mice received 2 initial i.p. injection (200 μg/mouse) of 1A8 Ly6G antibody (BE0075-1, BioXCel) or rat IgG control (14131, Sigma) every 3 days before cancer cell injection and then maintenance injection twice a week after cancer cell injection. For Sivelestat or DNase I treatment, mice were i.p. injected with Sivelestat (50 mg/kg) or DNase I (5 mg/kg) 2 h before cancer cell injection, followed by daily injection of the reagents for 9 days, and then maintenance shots twice a week. For GSK484 treatment, mice were treated with GSK484 (20 mg/kg, i.p. daily shots for 20 days from day 7, and then maintenance shots every two days) following orthotopic injection of AT3 or 4T07 cells. For IL-1b blocking or IL6R/CCR1 inhibition assays, mice were orthotopically inoculated with 5×10^4 AT3 and treated with i.p. administration of IgG or the IL-1β blocking antibody (100 μg per mouse), or the IL6R blocking antibody (100 μg per mouse) and the CCR1 inhibitor BX471 (20 mg/kg), every two days from day 7 until the mice were sacrificed. For brensocatib treatment, BALB/c mice were orthotopically inoculated with 1×10^5 4T1 cells, and C57/BL6 mice were orthotopically inoculated with 2×10^5 AT3. Vehicle controls (0.5% HPMC, 0.1% Tween 80 in 0.1 M citrate buffer, pH 3) and brensocatib (5 mg/kg) were administered orally twice daily until the mice were sacrificed. Orthotopic tumors were surgically removed at the size of about 1 cm^3. Recombinant human active PR3 treatment (1.5 mg/kg) was administrated intravenously daily after intravenous inoculation of […] LM2 cells. For TSP-1 degradation assays, mice were i.p. injected with GSK484 (20 mg/kg) 2 h before cancer cell injection and followed by daily treatment. Then, the lungs were perfused with 50 ml of pre-chilled PBS through the right ventricle until they were cleared of blood at 72 h post injection of 3×10^6 AT3 or 4T07 cells. BLI was acquired with NightOWL II LB983 Imaging System (Bert-hold) and IVIS Spectrum CT (PerkinElmer). All animal studies were conducted according to the guidelines for the care and use of laboratory animals and were approved by the Institutional Animal Care and Use Committee of Shanghai Institute of Nutrition and Health.
The use of CTSC inhibitors to treat lung metastasis of breast cancer is investigated. Brensocatib (also known as AZD7986 or INS1007) is a CTSC-specific inhibitor used for treating Non-Cystic Fibrosis Bronchiectasis, and has currently entered Phase II clinical trials. See Doyle et aL, “Discovery of second generation reversible covalent DPP1 inhibitors leading to an oxazepane amidoacetonitrile based clinical candidate (AZD7986),” J. Med. Chem. 59:9457-9472 (2016). Brensocatib is administered to mice 7 days after the introduction of 4T1 cells via fat pad injection. A vehicle control group is also provided. Graphical data for change in tumor volume over time, numbers of pulmonary nodules formed, changes in mouse weight over time, and mouse survival rates, as well as the statistical diagram of the number of NETs in the lesions, are shown in FIGS. 10A-E. CTSC inhibitor brensocatib also suppresses the NETs-promoted tumor sphere formation of 4T1 cells (FIG. 10F).

The test system of the next test is lung cancer cells A549. The test is described as follows: NET-promoted tumor sphere formation, lung cancer. Type of test: cell-based. Particulars: neutrophil medium, CM with or without brensocatib, FIG. 11L. On the procedure:
as §1

Turning to `CC(C)(C)C(=O)Oc1ccc(S(=O)(=O)Nc2ccccc2C(=O)NCC(=O)O)cc1` [Silvelestat], in the test with IL-1β, the “IL-1β levels (secretion) of neutrophils” value was “reduces”.
`Cn1c(=O)oc2ccc(-c3ccc(C[C@@H](C#N)NC(=O)[C@@H]4CNCCCO4)cc3)cc21` [brensocatib, (2S)—N-{(1S)-1-cyano-2-[4-(3-methyl-2-oxo-2,3-dihydro-1,3-benzoxazol-5-yl)phenyl]ethyl}-1,4-oxazepane-2-carboxamide]: in test [1], the “capability of drug-treated neutrophils to facilitate tumor cell growth (tumor sphere formation)” value is “significantly weakened”. The “NET-promoted tumor sphere formation (in vitro tumor growth)” value in the test with colon cancer cells SW480 and with lung cancer cells A549 was “inhibit in vitro tumor growth” throughout. The “in situ tumor volume vs. time (primary tumor growth)” value in the test on 4T1 cells (from 7 days after 4T1 fat pad injection, vs untreated control, FIG. 10A) is reported as “does not affect primary tumor growth”. Further, the “formation of NETs in the lung metastatic lesions” value in the test with 4T1 cells (FIG. 10E) was “significantly inhibits”. Moreover, the pulmonary nodule formation entry in the test with 4T1 cells (vs untreated mice, FIG. 10B) is recorded as “significantly reduced”. For the same compound, the body weight decrease entry in the test with 4T1 cells (vs untreated mice, FIG. 10C) was “lower than untreated mice”. For the same compound, the survival rate entry in the test with 4T1 cells (vs untreated mice, FIG. 10D) is “significantly improves”. For the same compound, the “neutrophil infiltration in the pulmonary lesions” value in the test on 4T1 cells (vs untreated mice, FIG. 10E) is on record as “reduced relative to untreated mice”.
